In patent US20020183307A1, “Novel 1,4-benzothiazephine and 1,5-benzothiazepine compounds as inhibitors of apical sodium co-dependent bile acid transport and taurocholate uptake” (priority 2000, published 2002) one finds IC50 data, which are given here for 14 compounds.

This assay has as its target T1, human IBAT (Homo sapiens, UniProt Q12908).
T1 construct: expressed in transfected cells; host or cells: Baby hamster kidney (BHK) cells, H14 clone
T1 sequence (Q12908 1-348): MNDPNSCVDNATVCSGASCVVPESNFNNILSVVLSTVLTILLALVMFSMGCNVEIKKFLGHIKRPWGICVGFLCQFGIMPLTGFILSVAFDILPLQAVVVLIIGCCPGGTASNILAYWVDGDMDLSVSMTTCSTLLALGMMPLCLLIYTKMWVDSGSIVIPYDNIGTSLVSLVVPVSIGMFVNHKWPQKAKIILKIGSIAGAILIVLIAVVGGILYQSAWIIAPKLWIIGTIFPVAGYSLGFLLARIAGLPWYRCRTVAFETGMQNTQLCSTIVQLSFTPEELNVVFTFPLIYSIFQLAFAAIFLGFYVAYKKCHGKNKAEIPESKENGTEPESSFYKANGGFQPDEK
As to the kind of experiment: In vitro assay of compounds that inhibit IBAT-mediated uptake of [14C]-taurocholate (TC) in H14 cells. The assay is classed as cell-based. The method, then: In Vitro Assay of Compounds That Inhibit IBAT-mediated Uptake of [^14C]-Taurocholate (TC) in H14 Cells
Baby hamster kidney cells (BHK) transfected with the cDNA of human IBAT (Hl4 cells) are seeded in 96 well Top-Count tissue culture plates at 60,000 cells/well for assays run within 24 hours of seeding, 30,000 cells/well for assays run within 48 hours, and 10,000 cells/well for assays run within 72 hours.
On the day of assay, the cell monolayer is gently washed once with […] (Dulbecco's Modified Eagle's medium with 4.5 g/L glucose plus 0.2% (w/v) fatty acid free bovine serum albumin ((FAF)BSA). To each well […] of a two-fold concentrate of test compound in assay buffer is added along with […] of […] [^14C]-taurocholate in assay buffer (final concentration of […] [^14C]-taurocholate).
The cell culture plates are incubated 2 hours at 37° C. prior to gently washing each well twice with […] 4° C. Dulbecco's phosphate-buffered saline (PBS) containing 0.2% (w/v) (FAF)BSA. The wells are then gently washed once with […] 4° C. PBS without (FAF)BSA. To each […] of liquid, scintillation counting fluid is added.
The plates are heat sealed and shaken for 30 minutes at room temperature prior to measuring the amount of radioactivity in each well on a Packard Top-Count instrument.

[1] abbreviates: Table 7, 1,5-benzothiazepines, 50% inhibitory concentrations by the biological evaluation procedures.
The mark [2] stands for this setting: Table 8, 1,4 and 1,5 benzothiazipines, additional IC50 values.

As usually defined, the IC50 is the concentration that inhibits the measured activity by half. A lower IC50 goes with inhibition by little substance.

Each structure is given as a SMILES string.

As to `CCCCC1(CCCC)CN(c2ccc(OC)cc2)c2cc(N(C)C)ccc2S(=O)(=O)C1` [SC-86287], the midpoint of inhibition under setting [1], the IC50, lay at 0.289 µM.

Under setting [2], `CCCCC1(CCCC)CS(=O)(=O)c2ccc(N(C)C)cc2[C@@H](c2ccc(OCCOCCOCC[N+](CC)(CC)CC)cc2)N1` (racemic) [Compound 4, N-[2-[2-[2-[4-[3,3-Dibutyl-7-(dimethylamino)-2,3,4,5-tetrahydro-1,1-dioxido-1 4-benzothiazepin-5-yl]phenoxy]ethoxy]ethoxy]ethoxy]-N,N,N-triethylaminium Iodide] showed a half-inhibitory concentration (IC50) of 0.074 µM.

In the case of `CCCC[C@]1(CC)CS(=O)(=O)c2ccccc2[C@@H](c2ccccc2)N1` [Compound 1], under setting [2], the IC50 is 0.6 µM.

With `CCCCC1(CCCC)CN(c2ccc(OCCOCCOCC[N+](CC)(CC)CC)cc2)c2cc(N(C)C)ccc2S(=O)(=O)C1` [PHA00400885E], the IC50 under setting [1] turned out to be 0.3 µM.

Turning to `CCCCC1(CCCC)CN(c2ccc(OCCN(CC)CC)cc2)c2cc(N(C)C)ccc2S(=O)(=O)C1` [PHA00400670], under setting [1], half-maximal inhibition (IC50) was put at 26.4 µM. This IC50 is about 88-fold higher than that of the compound before.

Turning to `CCCCC1(CCCC)CS(=O)(=O)c2ccc(N(C)C)cc2[C@@H](c2ccc(OCc3ccc(C[N+]45CCN(CC4)CC5)cc3)cc2)N1` (racemic) [Compound 5], the IC50 under setting [2] is 0.022 µM.

Compound `CCCCC1(CCCC)CN(c2ccc(OC)cc2)c2cc(N(C)C)ccc2S(=O)(=O)C1` [Compound 6, 3,3-Dibutyl-2,3,4,5-tetrahydro-7-dimethylamino-5-(4′-methoxyphenyl)-1,5-benzothiazepine1,1-dioxide] had an IC50 under setting [2] of 0.289 µM.

Regarding `CCCCC1(CCCC)CN(c2ccc(OCCOCCOCC[N+](CC)(CC)CC)cc2)c2cc(N(C)C)ccc2S(=O)(=O)C1` [Compound 8, N-[2-[2-[2-[4-[3,3-Dibutyl-7-(dimethylamino)-2,3,4,5-tetrahydro-1,1-dioxido-1,5-benzothiazepin-5-yl]phenoxy]ethoxy]ethoxy]ethoxy]-NNN-triethylaminium Iodide], half-maximal inhibition under setting [2] (IC50) was put at 0.3 µM.

For the compound `CCCCC1(CCCC)CN(c2ccc(OCC[N+](CC)(CC)CC)cc2)c2cc(N(C)C)ccc2S(=O)(=O)C1` [PHA00400884E], under setting [1], the IC50 is more than 1 µM.

For `CCCCC1(CCCC)CN(c2ccc(OCc3ccc(C[N+]45CCN(CC4)CC5)cc3)cc2)c2cc(N(C)C)ccc2S(=O)(=O)C1` [Compound 9, 1-[[4-[[4-[3,3-Dibutyl-7-(dimethylamino)-2,3,4,5-tetrahydro-1,1-dioxido-1,5-benzothiazepin-5-yl]phenoxy]methyl]phenyl]methyl]-4-aza-1-azoniabicyclo[2.2.2]octane Chloride], it took 0.03 µM to reach half-maximal inhibition under setting [2] (IC50).

The compound `CCCCC1(CCCC)CN(c2ccc(OC)cc2)c2cc(F)ccc2S(=O)(=O)C1` [SC-86288] registered an IC50 under setting [1] of 0.32 µM.

For the compound `CCCCC1(CCCC)CN(c2ccc(OCc3ccc(C[N+]45CCN(CC4)CC5)cc3)cc2)c2cc(N(C)C)ccc2S(=O)(=O)C1` [PHA00384640E], under setting [1], the IC50 came out at 0.031 µM.

`CCCCC1(CCCC)CN(c2ccc(OCC[N+](CC)(CC)CC)cc2)c2cc(N(C)C)ccc2S(=O)(=O)C1` [Compound 7]: the IC50 under setting [2] came to 15.1 µM. This counts as double-digit micromolar.

The compound `CCCCC1(CCCC)CS(=O)(=O)c2ccc(N(C)C)cc2[C@@H](c2ccc(OCC[N+](CC)(CC)CC)cc2)N1` (racemic) [Compound 3, N-[2-[4-[3,3-Dibutyl-7-(dimethylamino)-2,3,4,5-etrahydro-1,1-dioxido-1,4-benzothiazepin-5-yl]phenoxy]ethyl]-N,N,N-triethylaminium Iodide] displayed an IC50 under setting [2] of 2.09 µM.
